This passage reports IC50 and ED95 results from ChEMBL document CHEMBL1131848, “8-aminoquinolines as anticoccidials - Part III” (Bioorg Med Chem Lett, 1999).

Structures are written as SMILES. Values after ≈ are worked out from the molar mass of the structure shown.

Assay [1] relates to Eimeria acervulina. Put plainly: In vitro anti-coccidial activity against chicken hepatocyte Eimeria acervulina. It is filed as functional, organism-based.
The subject of assay [2] is Eimeria tenella. Kind of assay: In vitro anti-coccidial activity against chicken hepatocyte Eimeria tenella. It is filed as functional, organism-based.
Assay [3] relates to Eimeria acervulina. Put plainly: In vivo anti-coccidial activity against Eimeria acervulina (chick 7-day coccidiosis model). It is filed as functional.
Assay [4] relates to Eimeria tenella. Put plainly: In vivo anti-coccidial activity against Eimeria tenella (chick 7-day coccidiosis model). It is filed as functional.

On to `COc1cc(NCCCCCNC2CC[S+]([O-])CC2)c2ncccc2c1` (configuration not stated), for which the IC50 was more than 5 mg/L in the assay with Eimeria acervulina [1] and more than 1 mg/L with Eimeria tenella [2]. Besides, the ED95 with Eimeria acervulina [3] and in the assay with Eimeria tenella [4] was more than 25 p.p.m. in feed throughout.

With `CCNCCCCCNc1cc(OC)cc2cccnc12`, the IC50 in the assay with Eimeria acervulina [1] and in the assay on Eimeria tenella [2] was 0.2 mg/L (≈ 0.696 µM) throughout. Moreover, the figures for the ED95 in the assay with Eimeria acervulina [3] and in the assay on Eimeria tenella [4] were more than 50 p.p.m. in feed and 6.25 p.p.m. in feed, respectively.

For `COc1cc(NCCCCCNC2CC2)c2ncccc2c1`, the IC50 in the assay with Eimeria acervulina [1] and with Eimeria tenella [2] was 0.2 mg/L (≈ 0.668 µM) in each case. The ED95 in the assay on Eimeria acervulina [3] and with Eimeria tenella [4] was more than 12.5 p.p.m. in feed in each case.

`COc1cc(NCCCCCNCc2ccccc2)c2ncccc2c1`: the IC50 with Eimeria acervulina [1] and in the assay with Eimeria tenella [2] was 0.2 mg/L (≈ 0.572 µM) in each case. Further, the ED95 in the assay on Eimeria acervulina [3] and with Eimeria tenella [4] was more than 25 p.p.m. in feed throughout.

With `COc1cc(NCCCCCNC2CCCO2)c2ncccc2c1` (configuration not stated), the figures for the half-inhibitory concentration (IC50) with Eimeria acervulina [1] and in the assay with Eimeria tenella [2] were 1 mg/L (≈ 3.04 µM) and 0.2 mg/L (≈ 0.607 µM), respectively. In addition, the ED95 with Eimeria acervulina [3] and in the assay on Eimeria tenella [4] was 12.5 p.p.m. in feed throughout.

For `COc1cc(NCCCCCNC2CCOCC2)c2ncccc2c1`, the IC50 in the assay on Eimeria acervulina [1] and in the assay on Eimeria tenella [2] was 0.2 mg/L (≈ 0.582 µM) in each case. The ED95 with Eimeria acervulina [3] is 12.5 p.p.m. in feed; with Eimeria tenella [4], 6.25 p.p.m. in feed.

Consider `COc1cc(NCCCCCNC2CCSCC2)c2ncccc2c1`, for which the IC50 came out at 1 mg/L (≈ 2.78 µM) in the assay with Eimeria acervulina [1] and 0.2 mg/L (≈ 0.556 µM) in the assay on Eimeria tenella [2]. Moreover, the ED95 in the assay on Eimeria acervulina [3] and in the assay with Eimeria tenella [4] was more than 50 p.p.m. in feed in each case.

As to `COc1cc(NCCCNC(C)C)c2ncccc2c1`, the IC50 with Eimeria acervulina [1] and with Eimeria tenella [2] was 0.2 mg/L (≈ 0.732 µM) throughout. The ED95 in the assay with Eimeria acervulina [3] and in the assay on Eimeria tenella [4] was more than 25 p.p.m. in feed each time.

For `COc1cc(NCc2ccc(NC(C)C)cc2)c2ncccc2c1`, the IC50 with Eimeria acervulina [1] was 1 mg/L (≈ 3.11 µM); with Eimeria tenella [2], more than 1 mg/L. Further, the ED95 in the assay on Eimeria acervulina [3] and in the assay with Eimeria tenella [4] was more than 12.5 p.p.m. in feed in each case.

As to `COc1cc(NCCNC(C)C)c2ncccc2c1`, the 50% inhibitory concentration (IC50) with Eimeria acervulina [1] was 1 mg/L (≈ 3.86 µM); with Eimeria tenella [2], more than 1 mg/L. Also, the ED95 with Eimeria acervulina [3] and in the assay on Eimeria tenella [4] was more than 25 p.p.m. in feed in each case.

As to `COc1cc(NCCCCCNC2CCCC2)c2ncccc2c1`, the IC50 in the assay with Eimeria acervulina [1] and in the assay with Eimeria tenella [2] was 0.2 mg/L (≈ 0.611 µM) in each case. The ED95 in the assay on Eimeria acervulina [3] and with Eimeria tenella [4] was more than 25 p.p.m. in feed each time.

`COc1cc(NCCCCCN)c2ncccc2c1`: the figures for the half-maximal inhibitory concentration (IC50) with Eimeria acervulina [1] and in the assay on Eimeria tenella [2] were 1 mg/L (≈ 3.86 µM) and more than 1 mg/L, respectively. Besides, the ED95 in the assay on Eimeria acervulina [3] and in the assay on Eimeria tenella [4] was 100 p.p.m. in feed throughout.

As to `CCN(CC)CCC[C@H](C)Nc1cc(OC)cc2cccnc12`, the IC50 in the assay on Eimeria acervulina [1] was more than 1 mg/L; in the assay with Eimeria tenella [2] it was 0.2 mg/L (≈ 0.634 µM). Further, the ED95 with Eimeria acervulina [3] and with Eimeria tenella [4] was more than 50 p.p.m. in feed throughout.

In the case of `COc1cc(NCCCCCNC(C)(C)C)c2ncccc2c1`, the IC50 in the assay with Eimeria acervulina [1] and in the assay with Eimeria tenella [2] was 0.2 mg/L (≈ 0.634 µM) each time. Further, the figures for the ED95 in the assay with Eimeria acervulina [3] and in the assay with Eimeria tenella [4] were more than 25 p.p.m. in feed and 6.25 p.p.m. in feed, respectively.

Consider `COc1cc(N[C@@H](C)CCCNC(C)C)c2ncccc2c1`, for which the values for the IC50 with Eimeria acervulina [1] and in the assay with Eimeria tenella [2] were 1 mg/L (≈ 3.32 µM) and more than 1 mg/L, respectively. The ED95 in the assay on Eimeria acervulina [3] and in the assay on Eimeria tenella [4] was more than 50 p.p.m. in feed in each case.

Take `COc1cc(NCCCCNC(C)C)c2ncccc2c1`: the concentration for half-maximal inhibition (IC50) in the assay on Eimeria acervulina [1] and in the assay on Eimeria tenella [2] was 0.2 mg/L (≈ 0.696 µM) in each case. The ED95 with Eimeria acervulina [3] and in the assay with Eimeria tenella [4] was 6.25 p.p.m. in feed each time.

`N#CC(c1ccc(Cl)cc1)c1c(Cl)cc(-n2ncc(=O)[nH]c2=O)cc1Cl` (configuration not stated) [DICLAZURIL]: the IC50 with Eimeria acervulina [1] and in the assay with Eimeria tenella [2] was 0.008 mg/L (≈ 0.0196 µM) throughout. Further, the ED95 in the assay with Eimeria acervulina [3] and with Eimeria tenella [4] was 1 p.p.m. in feed each time.

As to `COc1cc(NCCCCCNC(C)C)c2ncccc2c1` [PENTAQUINE], the half-inhibitory concentration (IC50) in the assay on Eimeria acervulina [1] and in the assay on Eimeria tenella [2] was 0.2 mg/L (≈ 0.663 µM) in each case. The ED95 in the assay with Eimeria acervulina [3] and with Eimeria tenella [4] was 12.5 p.p.m. in feed each time.

One may read the IC50 as the point on the concentration scale where inhibition reaches its midpoint.
